Among the data in US9029531B2 (Agios Pharmaceuticals, Inc., priority 2012, dated 2015) are IC50 values, retold here.

Some results are limits rather than exact numbers.

What is called IC50 is the midpoint of a concentration-inhibition curve.

This test addresses T1, glutaminase (GAC) (Homo sapiens, UniProt O94925).
T1 sequence (O94925 55-598 isoform O94925-3 limits assumed): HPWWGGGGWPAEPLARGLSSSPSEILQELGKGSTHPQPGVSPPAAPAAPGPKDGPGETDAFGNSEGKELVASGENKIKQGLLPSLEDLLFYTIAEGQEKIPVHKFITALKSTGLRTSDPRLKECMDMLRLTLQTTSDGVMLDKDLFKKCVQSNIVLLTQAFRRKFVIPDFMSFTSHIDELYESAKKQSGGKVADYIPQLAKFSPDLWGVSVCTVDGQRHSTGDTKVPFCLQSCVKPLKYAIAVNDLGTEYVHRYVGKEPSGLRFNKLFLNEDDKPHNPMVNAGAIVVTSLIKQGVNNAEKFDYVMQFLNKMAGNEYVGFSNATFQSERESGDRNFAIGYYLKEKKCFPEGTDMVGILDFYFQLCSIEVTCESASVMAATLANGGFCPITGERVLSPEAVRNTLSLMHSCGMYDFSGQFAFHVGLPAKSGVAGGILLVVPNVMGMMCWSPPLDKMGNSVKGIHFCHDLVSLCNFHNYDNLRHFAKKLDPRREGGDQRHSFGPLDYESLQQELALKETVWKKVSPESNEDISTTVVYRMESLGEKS
The test is described as follows: Glutaminase coupled endpoint enzymatic assay (Example A). It is filed as biochemical. The settings on record: inhibition of glutaminase; assay of Example A or Example B. The text has this:
In certain embodiments, exemplary compounds of Formula I include the compounds described in Table 1 and in the Examples. A compound described herein may be tested for its ability to inhibit glutaminase, e.g., by an assay as described in the Examples. For simplicity, the inhibition activity of these compounds is represented as an IC50 tested in an assay of Example A or Example B in Table 1. […] “N/A” refers to compounds wherein the IC50 is unavailable.
In this example, the enzymatic activity of glutaminase is measured through a coupled endpoint assay. Glutamine and phosphate are supplied to GAC at a concentration equal to Km and AC50, respectively, and GAC concentration is adjusted to give a linear reaction for 60 minutes. The glutamate produced is converted to 2-OG by a kinetic excess of glutamate dehydrogenase. This second step is configured for 2×Km for NAD, since excess NAD is inhibitory. However, a kinetic excess of the third coupling enzyme, diaphorase, recycles NAD from NADH to keep the NAD concentration constant during the timecourse of the assay. Diaphorase, also supplied in kinetic excess, oxidizes NADH produced by GDH back to NAD with the concomitant reduction of rezasurin to the highly fluorescent resorufin. Resorufin in measured after the assay is stopped with SDS by Ex544/Em590. A reduction in the signal indicates inhibition of some component of the coupled enzyme system. Prospective hits are counterscreened against GDH/diaphorase alone to remove hits to the coupling enzyme system in a second assay.
2. Buffers • 2× Buffer (300 mM NaCl, 100 mM HEPES pH 8.5, 0.1% BSA, 0.5 mM EDTA, 100 mM sodium phosphate pH 8.5) • 5× Substrate Mix (1× Buffer final concentration, with 13 mM glutamine, 100 μM resazurin, 50 μg/ml diaphorase) • 1.2× Enzyme Mix (1× Buffer final concentration, with 0.875 μg/ml GAC, 1.56 mM NAD, 6.25 units/ml GDH) • Stop Mix (6% SDS in ddH2O) Reaction Procedure • 1. Add 1 μl compound in 100% DMSO • 2. Add 40 μl of Enzyme Mix and incubate for 60 minute at room temperature • 3. Add 10 μl of Substrate Mix to start reaction • 4. Stop reaction with 25 μl of 6% SDS and read Ex544 Em 590

With `O=C(Cc1ccccc1)Nc1nnc(C[C@H]2C[C@@H]2Cc2nnc(NC(=O)Cc3ccccc3)s2)s1` (racemic) [Compound 1, N,N′-(5,5′-(trans-cyclopropane-1,2-diylbis(methylene))bis(1,3,4-thiadiazole-5,2-diyl))bis(2-phenylacetamide)], the IC50 is 100 to 500 nM. Next, `O=C(Cc1ccccn1)Nc1nnc(C[C@H]2C[C@@H]2Cc2nnc(NC(=O)Cc3ccccn3)s2)s1` (racemic) [Compound 3, N,N′-(5,5′-(trans-cyclopropane-1,2-diylbis(methylene))bis(1,3,4-thiadiazole-5,2-diyl))bis(2-(pyridin-2-yl)acetamide)]: 500 to 1000 nM.

The compound `O=C(Cc1cccnc1)Nc1nnc(C[C@H]2C[C@@H]2Cc2nnc(NC(=O)Cc3cccnc3)s2)s1` (racemic) [Compound 5, N,N′-(5,5′-(trans-cyclopropane-1,2-diylbis(methylene))bis(1,3,4-thiadiazole-5,2-diyl))bis(2-(pyridin-3-yl)acetamide)] displayed an IC50 of 100 to 500 nM. Next, `O=C(Cc1cccs1)Nc1nnc(C[C@H]2C[C@@H]2Cc2nnc(NC(=O)Cc3cccs3)s2)s1` (racemic) [Compound 6, N,N′-(5,5′-(trans-cyclopropane-1,2-diylbis(methylene))bis(1,3,4-thiadiazole-5,2-diyl))bis(2-(thiophen-2-yl)acetamide)]: 100 to 500 nM; `COc1cccnc1CC(=O)Nc1nnc([C@H]2CCC[C@H](c3nnc(NC(=O)Cc4ncccc4OC)s3)C2)s1` (racemic) [Compound 116]: under 100 nM. To `COc1ccc(CC(=O)Nc2nnc([C@@H]3CCC[C@@H](c4nnc(NC(=O)Cc5ccc(OC)cc5)s4)C3)s2)cc1` (stereo in doubt) [Compound 52, N,N′-(5,5′-((1S,3S)-cyclohexane-1,3-diyl)bis(1,3,4-thiadiazole-5,2-diyl))bis(2-(4-methoxyphenyl)acetamide)] belongs under 100 nM.

As to `O=C(Cc1ccccn1)Nc1nnc(CC2CCC(Cc3nnc(NC(=O)Cc4ccccn4)s3)C2)s1` (stereo not shown) [Compound 4, N,N′-(5,5′-(cyclopentane-1,3-diylbis(methylene))bis(1,3,4-thiadiazole-5,2-diyl))bis(2-(pyridin-2-yl)acetamide)], the IC50 lay within 2000 to 10000 nM. To `O=C(Cc1ccccn1)Nc1nnc(CC2CC(Cc3nnc(NC(=O)Cc4ccccn4)s3)C2)s1` (stereo not shown) [Compound 7, N,N′-(5,5′-(cyclobutane-1,3-diylbis(methylene))bis(1,3,4-thiadiazole-5,2-diyl))bis(2-(pyridin-2-yl)acetamide)] belongs 2000 to 10000 nM; to `O=C(Cc1ccccc1)Nc1nnc(CC2CC(Cc3nnc(NC(=O)Cc4ccccc4)s3)C2)s1` (stereo not shown) [Compound 8, N,N′-(5,5′-(cyclobutane-1,3-diylbis(methylene))bis(1,3,4-thiadiazole-5,2-diyl))bis(2-phenylacetamide)], 100 to 500 nM. Next, `O=C(Cc1ccccc1)Nc1nnc([C@H]2CCC[C@H](c3nnc(NC(=O)Cc4ccccc4)s3)C2)s1` [Compound 9, N,N′-(5,5′-((1S,3S)-cyclohexane-1,3-diyl)bis(1,3,4-thiadiazole-5,2-diyl))bis(2-phenylacetamide)]: under 100 nM. To `O=C(Cc1ccccc1)Nc1nnc([C@@H]2CCC[C@H](c3nnc(NC(=O)Cc4ccccc4)s3)C2)s1` [Compound 10, N,N′-(5,5′-((1R,3S)-cyclohexane-1,3-diyl)bis(1,3,4-thiadiazole-5,2-diyl))bis(2-phenylacetamide)] belongs 1000 to 2000 nM; to `O=C(Cc1ccccc1)Nc1nnc([C@@H]2CCC[C@@H](c3nnc(NC(=O)Cc4ccccc4)s3)C2)s1` [Compound 11, N,N′-(5,5′-((1R,3R)-cyclohexane-1,3-diyl)bis(1,3,4-thiadiazole-5,2-diyl))bis(2-phenylacetamide)], under 100 nM. On to `CC(=O)Nc1nnc([C@H]2CCC[C@H](c3nnc(NC(C)=O)s3)C2)s1` [Compound 12, N,N′-(5,5′-((1S,3S)-cyclohexane-1,3-diyl)bis(1,3,4-thiadiazole-5,2-diyl))diacetamide], for which the IC50 is 500 to 1000 nM. `CC(=O)Nc1nnc([C@@H]2CCC[C@@H](c3nnc(NC(=O)Cc4cn(C)c5ccccc45)s3)C2)s1` [Compound 13] had an IC50 of 100 to 500 nM. Next, `Cn1cc(CC(=O)Nc2nnc([C@@H]3CCC[C@H](c4nnc(NC(=O)Cc5cn(C)c6ccccc56)s4)C3)s2)c2ccccc21` [Compound 15, N,N′-(5,5′-((1R,3S)-cyclohexane-1,3-diyl)bis(1,3,4-thiadiazole-5,2-diyl))bis(2-(1-methyl-1H-indol-3-yl)acetamide)]: 500 to 1000 nM. To `Cn1cc(CC(=O)Nc2nnc([C@H]3CCC[C@H](c4nnc(NC(=O)Cc5cn(C)c6ccccc56)s4)C3)s2)c2ccccc21` [Compound 16, N,N′-(5,5′-((1S,3S)-cyclohexane-1,3-diyl)bis(1,3,4-thiadiazole-5,2-diyl))bis(2-(1-methyl-1H-indol-3-yl)acetamide)] belongs 100 to 500 nM; to `O=C(Cc1ccccc1)Nc1nnc([C@@H]2CC[C@H](c3nnc(NC(=O)Cc4ccccc4)s3)C2)s1` [Compound 18, N,N′-(5,5′-((1R,3S)-cyclopentane-1,3-diyl)bis(1,3,4-thiadiazole-5,2-diyl))bis(2-phenylacetamide)], 1000 to 2000 nM; to `O=C(Cc1ccccc1)Nc1nnc([C@@H]2CC[C@@H](c3nnc(NC(=O)Cc4ccccc4)s3)C2)s1` [Compound 19, N,N′-(5,5′-((1R,3R)-cyclopentane-1,3-diyl)bis(1,3,4-thiadiazole-5,2-diyl))bis(2-phenylacetamide)], 100 to 500 nM.

`O=C(Cc1ccccn1)Nc1nnc([C@@H]2CCC[C@H](c3nnc(NC(=O)Cc4ccccn4)s3)C2)s1` [Compound 20, N,N′-(5,5′-((1R,3S)-cyclohexane-1,3-diyl)bis(1,3,4-thiadiazole-5,2-diyl))bis(2-(pyridin-2-yl)acetamide)]: the IC50 lay in the range of 1000 to 2000 nM. In the case of `O=C(Cc1c[nH]c2ccccc12)Nc1nnc([C@H]2CCC[C@H](c3nnc(NC(=O)Cc4c[nH]c5ccccc45)s3)C2)s1` [Compound 22], the IC50 was under 100 nM.

As for `O=C(Cc1c[nH]c2ccccc12)Nc1nnc([C@@H]2CCC[C@H](c3nnc(NC(=O)Cc4c[nH]c5ccccc45)s3)C2)s1` [Compound 23, N,N′-(5,5′-((1S,3R)-cyclohexane-1,3-diyl)bis(1,3,4-thiadiazole-5,2-diyl))bis(2-(1H-indol-3-yl)acetamide)], the IC50 was 100 to 500 nM.

The compound `O=C(Cc1cccc2[nH]ccc12)Nc1nnc([C@H]2CCC[C@H](c3nnc(NC(=O)Cc4cccc5[nH]ccc45)s3)C2)s1` [Compound 24, N,N′-(5,5′-((1S,3S)-cyclohexane-1,3-diyl)Obis(1,3,4-thiadiazole-5,2-diyl))bis(2-(1H-indol-4-yl)acetamide)] showed an IC50 of under 100 nM.

For the compound `O=C(Cc1cccc2[nH]ccc12)Nc1nnc([C@@H]2CCC[C@H](c3nnc(NC(=O)Cc4cccc5[nH]ccc45)s3)C2)s1` [Compound 25, N,N′-(5,5′-((1S,3R)-cyclohexane-1,3-diyl)bis(1,3,4-thiadiazole-5,2-diyl))bis(2-(1H-indol-4-yl)acetamide)], the IC50 was in the range of 500 to 1000 nM.

On to `CC(=O)Nc1nnc([C@@H]2CCC[C@@H](c3nnc(NC(=O)Cc4ccccn4)s3)C2)s1` [Compound 26], for which the IC50 is 100 to 500 nM.

`O=C(Cc1ccccn1)Nc1nnc([C@@H]2CC[C@H](c3nnc(NC(=O)Cc4ccccn4)s3)C2)s1` [Compound 32]: the IC50 lay within 500 to 1000 nM.
